This note sets out measurements from patent US10842727B2, “Cosmetic composition comprising white rose flower extract for skin whitening and improving skin wrinkle” (CHUNGBUK NATIONAL UNIVERSITY INDUSTRY-ACADEMIC COOPERATION …, priority 2014, dated 2020).

One experiment deals with mushroom tyrosinase. Nature of the experiment: Melanin synthase (tyrosinase) inhibition with L-DOPA, absorbance 475 nm. The experiment is classed as biochemical. As to conditions: method of Example 4. As to the method:
Meanwhile, in order to measure a skin whitening effect of the white rose petal extract, an effect of inhibiting activity of tyrosinase as melanin synthase was measured with reference to the guideline of “beauty-related functional tests (pp. 821-858)” of Korea health official compendium research society foundation. […] In this case, on the basis of a change in absorbance when only the buffer without the white rose fractions was added as a reference (100%), reduction of the absorbance caused by the white rose fractions for each concentration was represented by an inhibition rate.

Experiment [1] deals with collagen matrix metalloproteinase-1 (MMP-1). Briefly: Collagen matrix metalloproteinase-1 (MMP-1) activity inhibition, collagenase type-1 on bovine tendon collagen, ninhydrin absorbance 600 nm. To be noted: method of Example 3. The experiment is classed as biochemical. Here is the method: As part of measuring a wrinkle alleviation effect of the white rose petal extract, effects of inhibiting activity of collagen matrix metalloproteinase-1 (MMP-1) of the extracts were measured with reference to the guideline of “beauty-related functional tests (pp. 821-858)” of Korea health official compendium research society foundation.
When simply describing the effect, 25 mg of bovine tendon collagen was dissolved in a 0.05 M tris(hydroxymethyl)-methyl-2-aminoethane sulfonate (TES) buffer and then left for 15 minutes at 37° C. Next, a test material for each concentration was added and then additionally reacted with collagenase type-1 for 5 hours at 37° C. 0.2 mL of a reaction solution was taken and added to 1 mL of a buffer [4% ninhydrin in methyl cellosolve (2-methoxyethanol)+0.2 M sodium citrate with 0.71 mM stannous chloride]. The reaction solution was boiled for 20 minutes, added with n-propanol, and then left for 15 minutes and then absorbance was measured at 600 nm. On the basis of a change in absorbance when only the buffer without the white rose fractions was added as a reference (100%), reduction of the absorbance caused by the white rose fractions for each concentration was represented by an inhibition rate.

Another experiment relates to B16 mouse melanoma cells. Briefly: Melanin synthesis inhibition in α-MSH-treated cells. Type of experiment: cell-based. As to conditions: method of Example 5. As to the method:
In order to more definitize a skin whitening effect of the white rose petal extract, the inventors measured a melanin synthesis inhibitory effect of the white rose petal extract at a cell level with reference to the guideline of “beauty-related functional tests (pp. 821-858)” of Korea health official compendium research society foundation (2004).
When simply describing this, B16 mouse melanoma cells were dispensed to 1×10^4 cells/well (0.5 mL) in a […] plate and cultured for 24 hours. The B16 mouse melanoma cells was treated with the white rose fraction for each concentration and a α-melanocyte stimulating hormone (MSH) and additionally cultured for 3 days at 37° C. The cells were lysed by adding 0.15 mL of 1 M NaOH to a culture medium and boiled for 5 minutes to elute the melanin. 0.1 mL of the eluate was taken and absorbance at 490 nm was measured. A standard calibration curve was created by synthetic melanin and the concentration was quantified and an inhibition rate for each concentration of the white rose fraction was proposed based on a melanin production amount when the sample was not treated as a reference (100%).

As to `COc1c(CC=C(C)C)c(O)c2c(=O)c3c(O)ccc(OC)c3oc2c1CC=C(C)C` [3,5-di-o-methyl-gartanin], the “tyrosinase inhibition activity (in words)” value in the experiment on mushroom tyrosinase was “excellent tyrosinase inhibition activity”. The “inhibition effect of MMP-1 (in words)” value in experiment [1] is on record as “particularly excellent inhibition effect of MMP-1”. Moreover, in the experiment with B16 mouse melanoma cells, the “melanin synthesis inhibitory effect (in words)” value is “efficiently inhibited”.
